Like-named read-outs stand apart in the source and are kept apart here.
Assays:
[1] = Dissolution in physiological saline; assay type: physicochemical; conditions: 1 mg in 10 ml of physiological saline
B16 melanoma cells [2] = conditions: 50 mg/kg in terms of paclitaxel, intravenous, six days after administration; paclitaxel 50 mg/kg
Experimental: (§1) Further, a control solution was prepared by dissolving paclitaxel per se into a mixture of ethanol, Cremophore EL (manufactured and sold by Sigma, U.S.A.) and physiological saline.
(§2) With respect to the control solution, the dose of paclitaxel was 50 mg/kg.
(§3) Separately, a group consisting of thirteen mice, which were transplanted with B16 melanoma cells in the same manner as mentioned above, was provided. Each of the mice of such group received the administration of physiological saline, to thereby obtain a non-treated group of mice.
(§4) The tumor volume was determined as follows. […] [formula]

colon 26 tumor cells = conditions: 50 mg/kg in terms of paclitaxel, intravenous, repeated every 4 days; paclitaxel 50 mg/kg
Experimental: as §1, §2
Each of the mice of such group received the administration of only physiological saline in the same manner as in the case of the administration of the test sample solution, to thereby obtain a non-treated group of mice.
Evaluation was made of the antitumor activity in terms of the change (with the lapse of time) of the average tumor volume (%).
as §4

B16 melanoma cells [3] = conditions: 50 mg/kg in terms of paclitaxel, intravenous, six days after administration; paclitaxel 50 mg/kg; remark: listed apart in the source
Experimental: as §1, with “saline. Thus, four types of solutions, namely, three different types of test sample solutions and one control solution were obtained.” for “saline.”
Twenty-eight female C57BL/6 mice (six weeks old) were divided into four groups, each consisting of seven mice, and subsequently, B16 melanoma cells were intradermally transplanted to the groin of each of the mice (5×10^6 cells per mouse). After eight days from the transplantation, the above-mentioned four types of solutions were administered to the transplanted mice at the tails thereof intravenously so that the mice belonging to the same group received the administration of the same type of solution. […] With respect to the control solution, the dose of paclitaxel was 50 mg/kg.
as §3
The tumor volume was determined as follows. The external major and minor diameters (a and b, respectively) (each in mm) of the tumor were measured, and the tumor volume (V) was obtained according to the following formula. [formula]

[4] = serum, 37° C.; serum species and time not stated
Experimental: Each of compounds (24), (26), (28) and (30) (drug complexes) obtained in Example 8 was dissolved in physiological saline so that the concentration thereof in terms of dexamethasone was 80 μg/ml, to thereby obtain four solutions. 50 μl of each of the above-obtained four solutions was individually added to each of 250 μl of mouse serum and 250 μl of human serum, and the amounts of dexamethasone released from the respective compounds at 37° C. were determined as follows.
The recovery and quantitative analysis of dexamethasone in serum were conducted as follows: 250 μl of phosphate buffer (pH 7.4) was added to […] of each of the sera to which the above-mentioned solution was added, to thereby obtain a mixture. To the obtained mixture was added 3 ml of a solution of hydrocortisone acetate (as an internal standard for the below-mentioned HPLC analysis, the concentration of hydrocortisone acetate: 10 ng/ml) in a mixture of acetonitrile and methanol (acetonitrile/methanol=4/1) and subjected to centrifugation (3,000 rpm, 10 minutes, 4° C.). To 700 μl of the resultant supernatant was added 700 µl of distilled water, to thereby obtain a mixture. The obtained mixture was subjected to filtration with a membrane filter (pore size 0.2 μm), and the resultant filtrate was used as a sample for the quantitative analysis of dexamethasone by HPLC under the following conditions. […]
Column: Asahipak […] C18 (4.6×150 mm)
Column temperature: room temperature
The detected wavelength: 254 nm
Mobile phase: Linear gradient
0 min.: 20% aqueous acetonitrile (20% CH3CN/H2O)
20 min.: 50% aqueous acetonitrile (50% CH3CN/H2O)

Compound	antitumor activity (relative average tumor volume) as compared to paclitaxel per se (B16 melanoma cells [3])	dexamethasone introduced into the compound that was released [4]	other results
CC(=O)O[C@H]1C(=O)[C@@]2(C)[C@H]([C@H](OC(=O)c3ccccc3)[C@]3(O)C[C@H](OC(=O)[C@H](O)[C@@H](NC(=O)c4ccccc4)c4ccccc4)C(C)=C1C3(C)C)[C@]1(OC(C)=O)CO[C@@H]1C[C@@H]2O [paclitaxel]	–	–	dissolution of paclitaxel per se [1]: could not be dissolved completely
carboxymethylated dextran-2′-Gly-Gly-Phe-Gly-paclitaxel [compound (33)]	–	–	antitumor activity (relative average tumor volume) as compared to paclitaxel per se (B16 melanoma cells [2]): significantly excellent; antitumor activity (change of average tumor volume with time) as compared to paclitaxel per se (colon 26 tumor cells): significantly excellent
carboxymethylated dextran-2′-Ile-paclitaxel [compound (15)]	relatively weak	–	–
CCC(=O)OCC(=O)[C@@]1(O)[C@H](C)C[C@H]2[C@@H]3CCC4=CC(=O)C=C[C@]4(C)[C@@]3(F)[C@@H](O)C[C@@]21C [compound (30), 21-propanoyl-dexamethasone]	–	≥ 98%	–
carboxymethylated dextran-2′-Gly-paclitaxel [compound (3)]	significantly excellent	–	–
CCC(=O)NCC(=O)OCC(=O)[C@@]1(O)[C@H](C)C[C@H]2[C@@H]3CCC4=CC(=O)C=C[C@]4(C)[C@@]3(F)[C@@H](O)C[C@@]21C [compound (26), 21-propanoylglycyl-dexamethasone]	–	approximately 95%	–
carboxymethylated dextran-2′-Ala-paclitaxel [compound (7)]	excellent	–	–
CCC(=O)N[C@H](C(=O)OCC(=O)[C@@]1(O)[C@H](C)C[C@H]2[C@@H]3CCC4=CC(=O)C=C[C@]4(C)[C@@]3(F)[C@@H](O)C[C@@]21C)[C@@H](C)CC [compound (24), 21-propanoylisoleucyl-dexamethasone]	–	≤ 10%	–
CCC(=O)N[C@@H](C)C(=O)OCC(=O)[C@@]1(O)[C@H](C)C[C@H]2[C@@H]3CCC4=CC(=O)C=C[C@]4(C)[C@@]3(F)[C@@H](O)C[C@@]21C [compound (28), 21-propanoylalanyl-dexamethasone]	–	approximately 70%	–

Source: patent publication US6458347B1, “Drug complex” (Asahi Kasei Kabushiki Kaisha, priority 1996, dated 2002)
